Measurements taken from paper PMC8869358, “High-Throughput Chemical Screening and Structure-Based Models to Predict hERG Inhibition” (Biology, 2022).
Where a name gives a salt, the structure may show the parent alone.

Molecular target: hERG (Homo sapiens, UniProt Q12809)
Experiment: cell-based
Details: (-LOG10(IC50), µM)

Sequence of hERG (Q12809 whole entry): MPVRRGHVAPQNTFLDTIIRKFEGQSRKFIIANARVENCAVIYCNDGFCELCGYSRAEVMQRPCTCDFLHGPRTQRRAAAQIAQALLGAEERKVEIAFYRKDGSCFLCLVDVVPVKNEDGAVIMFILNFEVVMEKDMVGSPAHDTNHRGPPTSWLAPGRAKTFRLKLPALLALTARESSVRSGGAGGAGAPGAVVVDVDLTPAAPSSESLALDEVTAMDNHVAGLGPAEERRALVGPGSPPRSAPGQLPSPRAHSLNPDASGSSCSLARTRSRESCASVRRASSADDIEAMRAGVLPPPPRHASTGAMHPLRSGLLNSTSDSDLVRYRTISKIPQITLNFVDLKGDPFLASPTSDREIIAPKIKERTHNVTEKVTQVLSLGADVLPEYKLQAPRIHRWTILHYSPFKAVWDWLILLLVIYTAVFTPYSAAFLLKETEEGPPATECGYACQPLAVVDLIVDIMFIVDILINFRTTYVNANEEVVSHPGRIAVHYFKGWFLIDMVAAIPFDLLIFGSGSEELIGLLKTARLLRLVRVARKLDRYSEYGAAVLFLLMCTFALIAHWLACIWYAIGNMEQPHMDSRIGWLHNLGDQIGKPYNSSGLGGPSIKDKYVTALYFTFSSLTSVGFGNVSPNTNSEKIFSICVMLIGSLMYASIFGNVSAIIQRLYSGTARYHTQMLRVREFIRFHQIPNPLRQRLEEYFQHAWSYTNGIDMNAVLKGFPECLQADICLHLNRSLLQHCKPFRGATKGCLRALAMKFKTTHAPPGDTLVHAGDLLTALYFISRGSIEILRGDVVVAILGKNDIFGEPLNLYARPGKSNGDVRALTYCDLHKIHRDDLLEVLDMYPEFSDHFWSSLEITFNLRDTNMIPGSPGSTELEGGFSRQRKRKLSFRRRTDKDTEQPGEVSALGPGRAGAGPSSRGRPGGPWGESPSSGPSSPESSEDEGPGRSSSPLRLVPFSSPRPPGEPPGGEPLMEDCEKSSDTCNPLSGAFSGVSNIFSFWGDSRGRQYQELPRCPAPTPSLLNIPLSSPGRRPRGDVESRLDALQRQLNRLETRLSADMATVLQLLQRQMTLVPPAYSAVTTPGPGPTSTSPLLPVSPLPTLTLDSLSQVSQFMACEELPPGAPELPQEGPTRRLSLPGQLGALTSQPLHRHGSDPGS

Compound	IC50 [µM]
CC(Cc1ccc(C(C)(C)C)cc1)CN1C[C@@H](C)O[C@@H](C)C1 (stereo partly drawn) [(2R,6S)-Fenpropimorph]	15.5
Clc1ccc(C(c2ccccc2Cl)C(Cl)Cl)cc1 (stereo not shown) [1-(2-Chlorophenyl)-1-(4-chlorophenyl)-2,2-dichloroethane]	21.9
Nc1ccc(N=Nc2ccccc2)c(N)c1 [C.I. Basic Orange 2]	19.8
CC(CC(C#N)(c1ccccc1)c1ccccc1)N(C)C (stereo not shown) [4-Dimethylamino-2,2-diphenylvaleronitrile]	29.6
CC[N+](CC)(CC)CCOC(=O)C(C1CCCC1)C1CCCC1 [Diponium bromide]	9.52
Cc1ccc(CCn2c3c(c4cc(Cl)ccc42)CN(C)CC3)cn1 [Dorastine]	15.7
Nc1ccc(C(=O)N2CC3CC(CN(Cc4ccccc4)C3)C2)cc1 [Ambasilide]	21.3
CCCOc1ccc(S(=O)(=O)N2CCN(CC)CC2)cc1-c1nc2c(CC)n(Cc3ccccn3)nc2c(=O)[nH]1 [UK-343664]	21.9
CC(C)(C)c1ccc(CCC=O)cc1 [3-(4-tert-Butylphenyl)propanal]	49
C/C=C\C/C=C/CCCCCCCCOC(C)=O [(E,Z)-Tetradeca-9,12-dienyl acetate]	36.7
CCN(C(=O)c1cc(C)cc(OC[C@H](C)Nc2ccncc2)c1)C(C)C [GW473178E methyl benzene sulphonic acid]	15.9
CCCN(CCC)C(=O)C(CCC(=O)OCCCN1CCN(CCOC(=O)Cc2c(C)n(C(=O)c3ccc(Cl)cc3)c3ccc(OC)cc23)CC1)NC(=O)c1ccccc1 (stereo not shown) [Proglumetacin]	0.365
CNC(=O)c1cc(Oc2ccc(NC(=O)Nc3ccc(Cl)c(C(F)(F)F)c3)cc2)ccn1 [Sorafenib tosylate]	22.1
O=C(Nc1ccccc1)N(Cc1ccc(Cl)cc1)C1CCCC1 [Pencycuron]	33.4
OCCN1CCN(CC/C=C2/c3ccccc3Sc3ccc(C(F)(F)F)cc32)CC1 [cis-Flupentixol]	1.69
O=C(CCCN1CCN(c2ccccn2)CC1)c1ccc(F)cc1 [Azaperone]	4.77
CCCCCCCCCc1ccc(O)cc1 [4-Nonylphenol, branched]	34.3
CCc1cc(Cc2cc(CC)cc(C(C)(C)C)c2O)c(O)c(C(C)(C)C)c1 [2,2'-Methylenebis(ethyl-6-tert-butylphenol)]	17.4
C=C(Cl)CSC(=S)N(CC)CC [Sulfallate]	51.5
CC(C(O)c1ccc(O)cc1)N1CCC(Cc2ccccc2)CC1 (stereo not shown) [Ifenprodil]	7
COc1cc2c(cc1OC)-c1c/c(=N\c3c(C)cc(C)cc3C)n(C)c(=O)n1CC2 [Trequinsin hydrochloride]	14

Compound	IC50 [µM]
FC(F)(F)c1cccc(C2=CCN(CCc3ccc4ccccc4c3)CC2)c1 [Xaliproden hydrochloride]	1.76
CCOP(=S)(OCC)OC(Cl)C(Cl)(Cl)Cl (stereo not shown) [Chlorethoxyfos]	25.5
CN(C)c1ccc(C(=C2C=CC(=[N+](C)C)C=C2)c2ccc(N(C)C)cc2)cc1 [Gentian Violet]	2.79
O=C1C(Cl)=C(Cl)C(=O)c2ccccc21 [Dichlone]	21.9
CN1[C@@H]2CC[C@H]1C[C@@H](OC(=O)c1cc(Cl)cc(Cl)c1)C2 [Bemesetron]	6.01
CCC(C)Nc1ccc(NC(C)CC)cc1 (stereo not shown) [N,N'-Bis(1-methylpropyl)-1,4-benzenediamine]	12.5
CC[C@]12CCCN3CCc4c(n(c5ccccc45)C(=O)C1)[C@@H]32 [(-)-Eburnamonine]	1.9
CCc1cc(SCc2sc(-c3ccc(C(F)(F)F)cc3)nc2CN2CCN(c3ccc(OC)cc3)CC2)ccc1OCC(=O)O [PharmaGSID_47315]	3.34
CCCCCCCCCCCCCN1CC(C)OC(C)C1 (stereo not shown) [Tridemorph]	16.4
O=C1C=CC(=O)N1c1ccc(Cc2ccc(N3C(=O)C=CC3=O)cc2)cc1 [Bismaleimide]	43.6
O=C(NC1CCN(CCc2c[nH]c3ccccc23)CC1)c1ccccc1 [Indoramin hydrochloride]	4.42
CCC(=O)O[C@H]1CC[C@H]2[C@@H]3CCC4=CC(=O)CC[C@]4(C)[C@H]3CC[C@]12C [Testosterone propionate]	25.8
CS/C(C)=N/OC(=O)N(C)SN(C)C(=O)O/N=C(\C)SC [Thiodicarb]	43.6
CCCC[n+]1ccc(C)cc1 [1-Butyl-4-methylpyridinium chloride]	43.4
CCN(CC)CCOC(=O)C(c1ccccc1)c1ccccc1 [Adiphenine hydrochloride]	4.77
CC(=O)O[C@@H]1CC2C3CCc4cc(OC(=O)c5ccccc5)ccc4C3CCC2(C)[C@H]1OC(C)=O (stereo partly shown) [Estriol benzoate diacetate]	5.35
CCOCn1c(-c2ccc(Cl)cc2)c(C#N)c(Br)c1C(F)(F)F [Chlorfenapyr]	15.5
COc1cccc(-c2ccc(/C=C\CN3CCCCCC3)cc2Cl)c1 [SR125047]	1.48
CCCCOc1cc(C(=O)NCCN(CC)CC)c2ccccc2n1 [Dibucaine]	6.74
CN(C)CCCN1c2ccccc2Sc2ccccc21 [Promazine hydrochloride]	9.52
CN(C)C(=O)NC1(c2ccccc2)CCN(CCC[C@]2(c3ccc(Cl)c(Cl)c3)CCCN(C(=O)c3ccccc3)C2)CC1 [SSR146977]	1.71

Compound	IC50 [µM]
CCCN(CCOc1c(Cl)cc(Cl)cc1Cl)C(=O)n1ccnc1 [Prochloraz]	20.3
COc1cc2c(cc1OC)C(C(C(=O)N(CCc1ccc(OC)c(OC)c1OC)CCc1ccc(OC)c(OC)c1OC)c1ccccc1)=NCC2 (stereo not shown) [Pinokalant hydrochloride]	20.1
CC[C@]12CCCN3CCc4c(n(c5ccccc45)[C@@](O)(C(=O)OC)C1)[C@@H]32 [Vincamine]	1.33
CCCCCCCCn1sc(Cl)c(Cl)c1=O [4,5-Dichloro-2-octyl-3(2H)-isothiazolone]	16.1
CC(C)CC(C)N(c1ccccc1)c1ccc(N)cc1 (stereo not shown) [N-(4-Methylpentan-2-yl)-N-phenylbenzene-1,4-diamine]	27.5
CN(C)c1ccc(C(=N)c2ccc(N(C)C)cc2)cc1 [Auramine hydrochloride]	44.8
NC(=O)C1(N2CCCCC2)CCN(CCCN2c3ccccc3CCc3ccc(Cl)cc32)CC1 [Clocapramine]	1.45
CCCCCCCCCCCCCCCCCC[N+](C)(C)C [N,N,N-Trimethyloctadecan-1-aminium chloride]	17.4
COC(=O)c1cc(Oc2ccc(Cl)cc2Cl)ccc1[N+](=O)[O-] [Bifenox]	23.6
CCCCOC(=O)[C@@H](C)Oc1ccc(Oc2ccc(C#N)cc2F)cc1 [Cyhalofop-butyl]	4.87
O=C(C=Cc1ccccc1)OCCc1ccccc1 [Phenethyl cinnamate]	36
O=C1CCCC=CCCCCCCCCCC1 [5-Cyclohexadecen-1-one]	29.2
OCCN1CCN(CCCN2c3ccccc3Sc3ccc(C(F)(F)F)cc32)CC1 [Fluphenazine]	2.79
CCc1ccc2c(c1)C(=O)c1ccccc1C2=O [2-Ethylanthraquinone]	24.5
CC(C)C1CCC(Cc2ccc(Cl)cc2)C1(O)Cn1cncn1 (stereo not shown) [Ipconazole]	34.3
CN(C)C(=S)SSC(=S)N(C)C [Bis(dimethylaminothiocarbonyl) disulfide]	22.1
CCCCOC(=O)C(C)Oc1ccc(Oc2ccc(C(F)(F)F)cn2)cc1 (stereo not shown) [Fluazifop-butyl]	23.2
Oc1ccc(C(c2ccc(O)cc2)(C(F)(F)F)C(F)(F)F)cc1 [Bisphenol AF]	43.4
COC(=O)C1=C(C)NC(COC(N)=O)=C(C(=O)OC(C)C)C1c1cccc(Cl)c1Cl (stereo not shown) [Lemildipine]	23.9
CCOC(=O)NCCOc1ccc(Oc2ccccc2)cc1 [Fenoxycarb]	45.3
COc1ccc2c(c1OC)C(=O)O[C@H]2[C@@H]1c2cc3c(cc2CCN1C)OCO3 [(1S,9R)-beta-Hydrastine]	19

Compound	IC50 [µM]
COc1ccc2c(c1OC)C(=O)O[C@@H]2[C@H]1c2cc3c(cc2CCN1C)OCO3 [Hydrastine]	20.8
O=P(OCC(Br)CBr)(OCC(Br)CBr)OCC(Br)CBr (stereo not shown) [Tris(2,3-dibromopropyl) phosphate]	16.9
C[C@]12CC[C@H]3[C@@H](CCC4=CC(=O)CC[C@@H]43)[C@@H]1CC[C@@H]2OC(=O)CCc1ccccc1 [Nandrolone phenpropionate]	12.5
CC=O [Acetaldehyde]	5.33
CCCCC(CC)COC(=O)C(C#N)=C(c1ccccc1)c1ccccc1 (stereo not shown) [2-Ethylhexyl-2-cyano-3,3-diphenylacrylate]	18.4
CSc1ccc(Oc2ccc(S(N)(=O)=O)cc2CN(C)C)cc1C [UK-416244]	8.71
CCC1=C[C@@H]2CN(C1)Cc1c([nH]c3ccccc13)[C@@](C(=O)OC)(c1cc3c(cc1OC)N(C)[C@H]1[C@@](O)(C(=O)OC)[C@H](OC(C)=O)[C@]4(CC)C=CCN5CC[C@]31[C@@H]54)C2 [Vinorelbine tartrate]	6.49
CCN(CC)CCOc1ccc(Cc2ccccc2)cc1 [Tesmilifene]	8.82
CCOc1cc(C(C)(C)C)ccc1C1COC(c2c(F)cccc2F)=N1 (stereo not shown) [Etoxazole]	13.8
CC[N+](CC)(CC(=O)Nc1c(C)cccc1C)Cc1ccccc1 [Denatonium saccharide]	27.1
ClC1=C(Cl)C2(Cl)C3C(Cl)C=CC3C1(Cl)C2(Cl)Cl (stereo not shown) [Heptachlor]	31
O=C1OC2(c3ccc(O)cc3Oc3cc(O)ccc32)c2ccccc21 [Fluorescein]	21.9
O=C(N[C@@H](c1ccccc1)[C@@H]1CCCCN1)c1cccc(C(F)(F)F)c1Cl [SSR504734]	50.9
CC(C)(C)C(=O)C=Cc1ccc(Cl)cc1 [1-(4-Chlorophenyl)-4,4-dimethylpent-1-en-3-one]	43.6
COC(=O)[C@H]1[C@H]2C[C@@H]3c4[nH]c5cc(OC)ccc5c4CCN3C[C@H]2C[C@@H](OC(=O)COc2ccc(OC)cc2)[C@@H]1OC [Mefeserpine]	0.786
Nc1ccc(Cl)cc1C(=O)c1ccccc1 [2-Amino-5-chlorobenzophenone]	50.9
Cc1ccc(N(SC(F)(Cl)Cl)S(=O)(=O)N(C)C)cc1 [Tolylfluanid]	19.5
CCN(CC)Cc1nccn1-c1ccc([N+](=O)[O-])cc1C(=O)c1ccccc1Cl [Nizofenone fumarate]	6.74
c1ccc2c(c1)Oc1ccccc1S2 [Phenoxathiin]	24.5
